Source: US6479525B2, “Aspartate derivative of amlodipine” (Synthon BV, priority 2000, dated 2002)

System: isolated heart tissue
Assay: reduction of calcium-induced contraction of isolated heart tissue in vitro (calcium channel blocking activity)
Details: degree of reduction of contraction of an isolated heart tissue induced by an addition of calcium ions in vitro

CCOC(=O)C1=C(COCCN[C@@H](CC(=O)O)C(=O)O)NC(C)=C(C(=O)OC)C1c1ccccc1Cl (stereo partly shown) [Compound of formula (1), N-(2-{[4-(2-chlorophenyl)-3-(ethoxycarbonyl)-5-(methoxycarbonyl)-6-methyl-1,4-dihydro-2-pyridinyl]methoxy}ethyl)aspartic acid]
calcium channel blocking activity (ability to inhibit the movement of calcium into a cell): has been shown
